The subject of series [1] is GPX4 and other selenoprotein genes. Nature of the series: Quantitative PCR of antioxidant/selenoprotein genes in neurons. Type of series: cell-based, mice or rats. As to the method: (§1) Total RNA was prepared using the NucleoSpin RNA II kit (MACHEREYNAGEL) according to the manufacturer's protocol. Duplex real-time PCR reactions were performed with gene expression assays using 6-carboxyfluorescein-labeled probes (Applied Biosystems) for antioxidant enzymes. All expression levels were normalized to β-actin gene expression levels, which were determined with a VIC-labeled probe (Applied Biosystems). All experiments were performed using a Quant 6 Real-Time PCR System (Applied Biosystems).
(§2) Primary cortical neurons were obtained from either embryonic (E15) CD1 mice or embryonic (E17) Sprague-Dawley rats. Briefly, cortices were dissected, homogenized, and plated in minimum essential medium containing 10% fetal bovine serum (FBS), 5% horse serum, and 1% penicillin/streptomycin in 96-well plates, 6-well plates, or 10-cm dishes. Neurons were maintained at 37° C. with 5% CO2. All experiments were started at 24 hours after plating.

The test system of series [2] is GPX4-deficient neurons. Nature of the series: Survival of neurons with siRNA knockdown of GPX4. It counts as cell-based, mice or rats. Conditions: 50 μM NAC, siGPX4. An excerpt: Knock down of GPX4 was achieved by using lipofectamine RNAimax (Thermo-Fisher) to transfect primary cortical neurons with specific siRNA against GPX4. Three different sequences of siRNA were used separately to validate target specificity as opposed to sequence specificity. Knockdown was validated by mRNA and protein.

Series [3] can be described thus: ICP-MS measurement of selenium levels. Further details: species or system mouse. Conditions: in vitro and in vivo after Se treatment. As to the method: FIG. 2M is a graph showing inductively coupled mass spectrometry (ICP-MS) measurement of selenium levels normalized to protein concentration in cortical neurons treated with 80 μM hemin and/or Se.
FIG. 5D is a graph showing inductively coupled mass spectrometry (ICP-MS) measurement of selenium levels normalized to protein concentration following ICH and ICH+2.5 μM Se in striatum at 24 h post treatment (n=8).

The test system of series [4] is primary cortical neurons. As to the kind of experiment: In vitro ICH model: hemin-induced ferroptosis, MTT survival and Live/Dead assay. Type of series: cell-based, mice or rats. The following applies: for toxicity / therapeutic window in cultured neurons: in vitro, increasing concentrations. As to the method: as §2
Cell death was induced in primary cortical neurons and hippocampal HT22 cells by treatment with hemin ([…]; Sigma). For the neuroprotection studies, cells were treated with 80 μM hemin in the presence of sodium selenite (Sigma) diluted in water. Cell viability was analyzed 16 hours after treatment. Cells were rinsed with warm phosphate-buffered saline (PBS) and assessed by MTT assay. The fidelity of MTT assays in measuring viability was verified by calcein-AM/ethidium homodimer-1 staining (Live/Dead assay, Molecular Probes) following the manufacturer's instructions.

Series [5] relates to GPX4 and selenoprotein mRNA in striatum. It counts as in vivo, mouse. Conditions: ICV injection. The method, then:
FIG. 5A is a schematic showing ICV injection of dose dependent Se (1-5 μM) and collection of striatum 6 hours later to extract RNA for quantitative PCR.
Male C57BL/6 mice (8 to 10 weeks of age; Charles River) were anesthetized with isoflurane (2 to 5%) and placed on a stereotaxic frame. During the procedure, the animal's body temperature was maintained at 37° C. with a homeothermic blanket. With a nanomite syringe pump (Harvard Apparatus) and a Hamilton syringe, […] of collagenase (0.075 IU; Sigma) was infused into the right striatum at a flow rate of 0.120 ml/min. Relative to the bregma point, the stereotaxic coordinates of the injection were as follows: lateral, −0.20; anteroposterior, 0.62; and dorsoventral, −0.40. In control animals, […] of saline was infused. The treatment group received sodium selenite (1-5 μM) 2 hours after collagenase infusion directly into the ventricals. The control groups received vehicle (saline) alone. The animals were randomized to sham or ICH groups. The identity of the mice that received vehicle or Se was masked to surgeons who performed the ICH. […]
Total RNA was prepared using the NucleoSpin RNA II kit (MACHEREYNAGEL) according to the manufacturer's protocol. […] All expression levels were normalized to β-actin gene expression levels, which were determined with a VIC-labeled probe (Applied Biosystems). […]

In series [6] the test system is primary cortical neurons. Nature of the series: Oxidative stress-induced neuronal death: HCA-induced ferroptosis, MTT survival. Type of series: cell-based, mice or rats. Conditions: HCA 5 mM, survival at 24 h. The method, then: as §2
Primary cortical neurons and HT22 cells were exposed to 5 mM HCA (glutamate structural analog) to induce oxidative stress-induced cell death, and sodium selenite (Sigma) was applied in media. 24 hours after treatment with HCA, the cells were rinsed with warm PBS, and cell viability was assessed by MTT assay (Life Technologies) and calcein-AM/ethidium homodimer-1 staining (Live/Dead assay, Molecular Probes).

In series [7] the test system is GPX4 mRNA. As to the kind of experiment: GPX4 mRNA in organs after intraperitoneal injection of peptides. Type of series: in vivo, mouse. The following applies: 12 μg/g intraperitoneal, 24 h. The method, then:
FIG. 69B quantifies GPX4 mRNA levels 24 h following IP injection of SelPep (4-12 μg/g; n=3) in the striatum, cortex, heart or liver.
as §1

Series [8] deals with collagenase mouse model of ICH. As to the kind of experiment: Collagenase-induced mouse model of ICH: behavior, fluorojade, immunofluorescence. It counts as in vivo. As to the method:
Male C57BL/6 mice (8 to 10 weeks of age; Charles River) were anesthetized with isoflurane (2 to 5%) and placed on a stereotaxic frame. During the procedure, the animal's body temperature was maintained at 37° C. with a homeothermic blanket. With a nanomite syringe pump (Harvard Apparatus) and a Hamilton syringe, […] of collagenase (0.075 IU; Sigma) was infused into the right striatum at a flow rate of 0.120 ml/min. Relative to the bregma point, the stereotaxic coordinates of the injection were as follows: lateral, −0.20; anteroposterior, 0.62; and dorsoventral, −0.40. In control animals, […] of saline was infused. […] The control groups received vehicle (saline) alone. The animals were randomized to sham or ICH groups. The identity of the mice that received vehicle or Se was masked to surgeons who performed the ICH. […] Proper postoperative care was taken until the animals recovered completely.
The corner task assessed the integrated sensorimotor function in both stimulation of vibrissae (sensory neglect) and rearing (motor response) (See Schallert et al., Neuropharmacology 39(5): p. 777-87 (2000)). Mice were placed between two cardboard pieces forming a corner with a 30° angle. While maintaining the 30° angle, the boards were gradually moved toward the mouse until the mouse approached the corner, reared upward, and turned 180° to face the open end. The direction (left or right) in which the mouse turned around was recorded for each trial. Ten trials were performed for each mouse. The adhesive tape removal task in mice was performed as previously described. Briefly, adhesive tape was placed on the planter region of the forward paw (right and left) of mice. The time from which the tape was applied to when the mouse successfully removed it was recorded for each paw. A maximum of 300 s for each paw was allowed.
For immunocytochemical experiments in the brain, three control mice with induced unilateral stroke and three selenium-treated mice with induced unilateral stroke were perfusion fixed with 4% PFA in PBS for 15 min. The brains were isolated and postfixed for 1 h in 4% PFA. After cryoprotection in a sucrose gradient, brain sections were cut at 30 μm.
Free-floating brain sections were blocked for 1 h in a PBS solution containing 3% bovine serum (Sigma), and 0.5% Triton X-100 (Biorad). Primary antibodies were diluted in the same solution and applied for 12 h, followed by incubation for 1 h with the appropriate secondary antibody, conjugated to Alexa 488 (1:1000; green fluorescence, Molecular Probes) or Alexa 568 (1:1000; red fluorescence, Molecular Probes). For nuclear labeling, ToPro was added to the mixture (1:15000, far red fluorescence, Invitrogen, T3605). […]

Where [9] appears, read: 12 μg/g IP from 2 h post-ICH, daily for 7 days, from day 3, significant by day 14.

“Also recorded” adds a separate entry of the source. Starred links: 1 amine or outer side, 2 acyl side, 3 side chain; linkers in the order of their positions; H or OH if unused. Positions of bridges follow the written chain, without caps; N, C: chain ends. Non-standard residues stand in square brackets, D forms with d. Residues, ends and D or L forms follow the SMILES beside them. Chains are numbered I, II in the order given. Actinocin(9to1) = Cc1c2oc3c(C)ccc(C(=O)[*:1])c3nc-2c(C(=O)[*:2])c(N)c1=O; NMeV = CN[C@H](C(=O)O)C(C)C; Sec = N[C@@H](C[SeH])C(=O)O; Sar = CNCC(=O)O

The source of these data is patent US11078236B2, “Selenium-based therapies” (Burke Neurological Institute, priority 2017, dated 2021).

As for `CC(=O)N[C@@H](CS)C(=O)O` [NAC, N-acetylcysteine], the “effect on GPX4 expression” value in series [1] (50 μM NAC) is “no effect on GPX4 mRNA levels; also recorded: without affecting GPX4 expression”. The “survival of GPX4-deficient neurons” value in series [2] is on record as “prevents cell death due to GPX4 molecular depletion; also recorded: protected GPX4-deficient neurons; also recorded: prevents cell death due to GPX4 knockdown”.
In the case of `O=[Se](O)O` [Se, Sodium selenite], the “selenium levels by ICP-MS” value in series [3] is “significant increases in cellular selenium”. Moreover, the “toxicity / therapeutic window in cultured neurons” value in series [4] is “parabolic dose response with a narrow therapeutic window”. Further, the “toxicity or death in mice” value in series [5] (any concentration (1-5 μM)) is recorded as “no toxicity or death”. The “optimal Se concentration for inducing selenoprotein expression” value in series [5] (uninjured mice, striatum 6 h later) amounted to 2.5 µM.
For `CC(C)C[C@H](NC(=O)[C@H](CC(N)=O)NC(=O)[C@H](C[SeH])NC(=O)[C@H](CCCCN)NC(=O)[C@H](C[SeH])NC(=O)[C@H](CCCCN)NC(=O)[C@H](CCCNC(=N)N)NC(=O)[C@H](CCCNC(=N)N)NC(=O)[C@H](CCCNC(=N)N)NC(=O)[C@H](CCC(N)=O)NC(=O)[C@H](CCCNC(=N)N)NC(=O)[C@H](CCCNC(=N)N)NC(=O)[C@H](CCCCN)NC(=O)[C@H](CCCCN)NC(=O)[C@H](CCCNC(=N)N)NC(=O)CNC(=O)[C@@H](N)Cc1ccc(O)cc1)C(=O)N[C@@H](CC(N)=O)C(N)=O` [Tat-SelPep] (H-YGRKKRRQRRRK[Sec]K[Sec]NLN-NH2), the “protection from HCA-induced ferroptosis” value in series [6] is reported as “concentration dependent protection”. In addition, the “single cell analysis of cell viability and death (live/dead)” value in series [4] (hemin 80 μM, 16 h, 1 μM peptide) was “prevented hemin induced ferroptosis and completely preserved cell bodies and neurites of neurons”. In addition, the “protection from hemin-induced ferroptosis” value in series [4] (hemin 80 μM, survival at 16 h, MTT) is listed as “concentration dependent protection”. In addition, the “toxicity / therapeutic window in cultured neurons” value in series [4] is listed as “wide therapeutic window with no apparent toxicity”. The “GPX4 expression in heart, liver, striatum and cortex” value in series [7] is on record as “induced significant expression of GPX4”. For the same compound, in series [1] (1 μM peptide, 6 h post-treatment), the “GPX4, SeIP, TXNRD1, GPX3 and SelK mRNA” value was “induced significant increases”. In addition, the “cell death measured by Fluoro-Jade staining” value in series [8] (12 μg/g IP from 2 h post-ICH, daily for 7 days) is listed as “reduced cell death”. In series [8] (setting [9]), the sensory neglect task result is listed as “improved” and the spatial neglect task entry was “improved”. Further, the “behavior outcomes in animals overexpressing mSp1” value in series [8] (AAV8-mSp1 in striatum, 12 μg/g IP, day 14 post-stroke) was “fail to demonstrate significant behavior improvements”.
Consider `Cc1c2oc3c(C)ccc(C(=O)N[C@@H]4C(=O)N[C@H](C(C)C)C(=O)N5CCC[C@H]5C(=O)N(C)CC(=O)N(C)[C@@H](C(C)C)C(=O)O[C@@H]4C)c3nc-2c(C(=O)N[C@@H]2C(=O)N[C@H](C(C)C)C(=O)N3CCC[C@H]3C(=O)N(C)CC(=O)N(C)[C@@H](C(C)C)C(=O)O[C@@H]2C)c(N)c1=O` [actinomycin-D] (I: T[dV]P[Sar][NMeV] / II: T[dV]P[Sar][NMeV]; ester I:1-I:C, II:1-II:C; linker I:N-II:N via Actinocin(9to1)), for which, in series [4] (co-treatment with transcription inhibitor, MTT), the “protection against hemin toxicity induced by Se” value was “abrogated protection; also recorded: abolished protection against hemin toxicity”. Also, the “Se-dependent increase in GPX4 mRNA” value in series [1] (co-treatment with transcription inhibitor) is on record as “inhibited Se-dependent increase in GPX4 mRNA”.
